Measurements taken from US8828442B2, “Pharmaceutical solid dispersions” (Bend Research, Inc., priority 1999, dated 2014).

Experiment: In vitro dissolution test in Model Fasted Duodenal (MFD) solution, before storage
Assay type: physicochemical
Conditions: before aging; for AUC90 fresh: AUC from 0 to 90 minutes, MFD solution; for MDC fresh: maximum drug concentration, MFD solution pH 6.5, 37° C.
From the text: The concentration of dissolved drug is typically measured as a function of time by sampling the drug and plotting concentration vs. time so that the MDC can be ascertained. To avoid drug particulates which would give an erroneous determination, the test solution is either filtered or centrifuged. “Dissolved drug” is typically taken as that material that either passes a 0.45 μm syringe filter or, alternatively, the material that remains in the supernatant following centrifugation. Filtration can be conducted using a 13 mm, 0.45 μm polyvinylidine difluoride syringe filter sold by Scientific Resources under the trademark TITAN®. Centrifugation is typically carried out in a polypropylene microcentrifuge tube by centrifuging at 13,000 G for 60 seconds. Other similar filtration or centrifugation methods can be employed and useful results obtained. For example, using other types of microfilters may yield values somewhat higher or lower (±10-40%) than that obtained with the filter specified above but will still allow identification of preferred dispersions. It is recognized that this definition of “dissolved drug” encompasses not only monomeric solvated drug molecules but also a wide range of species such as polymer/drug assemblies that have submicron dimensions such as drug aggregates, aggregates of mixtures of polymer and drug, micelles, polymeric micelles, colloidal particles or nanocrystals, polymer/drug complexes, and other such drug-containing species that are present in the filtrate or supernatant in the specified dissolution test.
Dissolution performance of the material from Example 1, before exposure to increased temperature and humidity, was measured as follows. In a 37° C. controlled temperature box, 3.0 mg of the material of Example 1 was inserted into a polypropylene microcentrifuge tube (Sorenson Bioscience Inc.). The theoretical MDC in solution (i.e., if all drug dissolved) was 490 μg/ml [(3.0 mg×1000 μg/mg)×(0.33 g drug/g dispersion)×0.90 salt factor×0.98 drug assay/1.8 ml=490 μg/ml]. […] The tube was closed and a timer was started. […] Each sample was centrifuged, sampled and resuspended as described, then diluted with 250 μL HPLC grade methanol (Burdick & Jackson) and the concentration of drug was determined by HPLC. Samples were taken after 4, 10, 20, 40, and 90 minutes, analyzed, and drug concentrations for each time point were calculated. […]
In addition, the AUC90 value was calculated for Example 1. […] AUC between two individual time points within the curve was determined as follows. […] AUC90 is determined by calculating the sum of these areas defined by the drug concentrations observed at t1 and t2 equal to: 0 and 4 minutes, 4 and 10 minutes, 10 and 20 minutes, 20 and 40 minutes, and 40 and 90 minutes.

AUC90 fresh	MDC fresh	Compound
165000 ng·h/mL	135 µg/mL	CCC(CC)Nc1cc(C)nc(Oc2c(C)cc(C)cc2C)c1C.Cl [Comparative Example C9, [3,6-Dimethyl-2-(2,4,6-trimethyl-phenoxy)-pyridin-4-yl]-(1-ethyl-propyl)-amine hydrogen chloride]
23300 ng·h/mL	22 µg/mL	CCC(CC)Nc1cc(C)nc(Oc2c(C)cc(C)cc2C)c1C [Comparative Example C10, [3,6-Dimethyl-2-(2,4,6-trimethyl-phenoxy)-pyridin-4-yl]-(1-ethyl-propyl)-amine]
